Measurements taken from patent publication US20120035206A1, “PREPARATION AND APPLICATION OF NOVEL ANTIBACTERIAL AND ANTICANCER COMPOUNDS AND THEIR DERIVATIVES” (priority 2009, published 2012).
≈ marks a conversion by molar mass, not a printed value.

Tests used:
Assay type in all cases: cell-based
C. neoformans = test: In vitro antibacterial (antifungal) test, two-fold dilution MIC; details: Cryptococcus neoformans, RPMI 1640, culture 2-7 days
Description: (§1) In vitro antibacterial experiments of 25 compounds as anti-bacterial and anti-cancer compounds in the patent were tested using 14 kinds of bacteria. Tested bacteria: C. albicans, C. tropicalis, C. neoformans, E. floccosum, M. gypseum, A. niger, S. schenekn, C. parapsilosis, C. glabrata, C. Krusei, Trichoderma, Gibberella, Setrosphaeria turcica, Fusarium Oxysporum Vasinfectum. (Bacteria were from the Dermatology Hospital of Chinese Academy of Medical Sciences, Nanjing, China.)
(§2) The Preparation of tested Bacteria solution was following: incubated Bacteria were added to 5 ml physiological saline, and then they were mashed and placed with ultrasound. The solution was fully mixed, and insoluble substances were removed. The treated solution was called the original bacterium solution. In the test, the bacteria concentration in the original bacterium solution was adjusted to […].
(§3) Tested Methods: the tested compounds were dissolved in dimethyl sulfoxide. and the solution was diluted with sterile distilled water. And the distilled solution was added to sterilized RPMI 1640 medium. The concentration of the compounds were adjusted to 256, 128, 64, 32, 16, 8, 4, 2, 1, 0.5, 0.25, 0.125 ug*ml-1. Then the adjusted solutions were inoculated with tested bacteria, and the tested systems were placed in the constant temperature oven to culture for 2-7 days. The concentration at which there was no growing of fungi was taken as the minimum inhibitory concentration (MIC).

S. schenekn = test: as above; details: RPMI 1640, culture 2-7 days
Description: as §1, §2, §3

M. gypseum = test: as above; details: Nannizzia gypsea, RPMI 1640, culture 2-7 days
Description: as §1, §2, §3

C. tropicalis = test: as above; details: Candida tropicalis, RPMI 1640, culture 2-7 days
Description: as §1, §2, §3

C. glabrata = test: as above; details: Nakaseomyces glabratus, RPMI 1640, culture 2-7 days
Description: as §1, §2, §3

E. floccosum = test: as above; details: Epidermophyton floccosum, RPMI 1640, culture 2-7 days
Description: as §1, §2, §3

C. Krusei = test: as above; details: Pichia kudriavzevii, RPMI 1640, culture 2-7 days
Description: as §1, §2, §3

C. albicans = test: as above; details: Candida albicans, read-out: MIC C. albicas
Description: as §1, §2, §3

C. parapsilosis = test: as above; details: Lodderomyces parapsilosis, RPMI 1640, culture 2-7 days
Description: as §1, §2, §3

HTB-95637 = test: In vitro anticancer MTT experiment; details: concentration 5 ug/ml, 48 h or 72 h, read-out: inhibition ratio HTB-95637
Description: (§4) In vitro anticancer experiments of 25 compounds as anti-bacterial and anti-cancer compounds in the patent were tested. In the test, 14 kinds of cancer cells were used as tested cancer cells. And the results obtained by MTT method were shown in table 2 (the inhibition ratio was obtained when the concentration was 5 ug/ml). Tested Cancer Cells: SGC7901, HTB-38HT-29, CRL-2233NU-398, CRL-1469PANC-1, B0192, HTB-131MDA-453, CRL-1435PC-3, FTC133, AS24391, HTB-95637. (Cancer cells were from Chinese Military Academy of Medical Sciences). Cells Culture: Culture solution was composed of RPMI 1640 medium, 10% (VAT) Fetal calf serum and 0.01% L-glutamine. Cultured cells were maintained at 37° C. in an incubator with 5% CO2. The cells at logarithmic growth phase were used in the experiment. MTT Experiment: Single cell suspension was obtained by digesting cells with 0.25% trypsin. The cells at logarithmic growth phase were collected and seeded in a 96-well plate at a concentration of 6000-7000 cells per well. After culturing for 12 h at 37° C. in the incubator with 5% CO2, the cells were again incubated with the tested compounds of various concentrations for 48 h or 72 h. Pure cultures and cells without drug were taken as blank reference and negative reference, and 8 Wells of each group were taken. Twenty microliter of MTT (5 mg/mL) was added to each well, and the mixed solutions were incubation for 4 h. The formazan product was dissolved by dimethyl sulfoxide (DMSO, 150 μL), and the optical density (O.D.) was read at 570 nm. The Inhibition Ratio was calculated by the following formula: Inhibition Ratio=(Anegative control−Asample)/(Anegative control−Ablank control)

FTC 133 = test: In vitro anticancer MTT experiment; details: Homo sapiens, concentration 5 ug/ml, 48 h or 72 h, read-out: inhibition ratio FTC 133
Description: as §4

HTB-94 = test: In vitro anticancer MTT experiment; details: concentration 5 ug/ml, 48 h or 72 h, read-out: inhibition ratio HTB-94
Description: as §4

CRL-1469PANC-1 = test: In vitro anticancer MTT experiment; details: concentration 5 ug/ml, 48 h or 72 h, read-out: inhibition ratio CRL-1469PANC-1
Description: as §4

L1210 = test: In vitro anticancer MTT experiment; details: Mus musculus, concentration 5 ug/ml, 48 h or 72 h, read-out: inhibition ratio L1210
Description: as §4

CRL-1435PC-3 = test: In vitro anticancer MTT experiment; details: concentration 5 ug/ml, 48 h or 72 h, read-out: inhibition ratio CRL-1435PC-3
Description: as §4

CRL-2233SNU-398 = test: In vitro anticancer MTT experiment; details: concentration 5 ug/ml, 48 h or 72 h, read-out: inhibition ratio CRL-2233SNU-398
Description: as §4

B01092 = test: In vitro anticancer MTT experiment; details: concentration 5 ug/ml, 48 h or 72 h, read-out: inhibition ratio B01092
Description: as §4

HTB-131MDA-MB-453 = test: In vitro anticancer MTT experiment; details: concentration 5 ug/ml, 48 h or 72 h, read-out: inhibition ratio HTB-131MDA-MB-453
Description: as §4

A375 = test: In vitro anticancer MTT experiment; details: Homo sapiens, A-375, concentration 5 ug/ml, 48 h or 72 h, read-out: inhibition ratio A375
Description: as §4

HTB-38HT-29 = test: In vitro anticancer MTT experiment; details: concentration 5 ug/ml, 48 h or 72 h, read-out: inhibition ratio HTB-38HT-29
Description: as §4

L428 = test: In vitro anticancer MTT experiment; details: Homo sapiens, L-428, concentration 5 ug/ml, 48 h or 72 h, read-out: inhibition ratio L428
Description: as §4

SGC7901 = test: In vitro anticancer MTT experiment; details: Homo sapiens, SGC-7901, concentration 5 ug/ml, 48 h or 72 h, read-out: inhibition ratio SGC7901
Description: as §4

AS24391 = test: In vitro anticancer MTT experiment; details: concentration 5 ug/ml, 48 h or 72 h, read-out: inhibition ratio AS24391
Description: as §4

Setosphaeria turcica = test: In vitro antibacterial (antifungal) test, two-fold dilution MIC; details: Exserohilum turcicum, RPMI 1640, culture 2-7 days
Description: as §1, §2, §3

[1] = test system: Fusarium oxysporum vasinfectum; test: as above; details: RPMI 1640, culture 2-7 days
Description: as §1, §2, §3

Terchoderma = test: as above; details: Trichoderma, RPMI 1640, culture 2-7 days
Description: as §1, §2, §3

| Structure (SMILES) | MIC (C. neoformans) | MIC (S. schenekn) | MIC (M. gypseum) | MIC (C. tropicalis) | MIC (C. glabrata) | MIC (E. floccosum) | MIC (C. Krusei) | MIC (C. albicans) | MIC (C. parapsilosis) | inhibition at 5 µg/mL (HTB-95637) | inhibition at 5 µg/mL (FTC 133) | inhibition at 5 µg/mL (HTB-94) | inhibition at 5 µg/mL (CRL-1469PANC-1) | inhibition at 5 µg/mL (L1210) | inhibition at 5 µg/mL (CRL-1435PC-3) | inhibition at 5 µg/mL (B01092) | inhibition at 5 µg/mL (A375) | inhibition at 5 µg/mL (HTB-38HT-29) | inhibition at 5 µg/mL (L428) | inhibition at 5 µg/mL (AS24391) | further results |
| --- | --- | --- | --- | --- | --- | --- | --- | --- | --- | --- | --- | --- | --- | --- | --- | --- | --- | --- | --- | --- | --- |
| O=C1/C(=C/Cl)SCc2ccccc21 [Compound 14, (Z)-3-(chloromethylene)isothiochroman-4-one] | 4 µg/mL (≈ 19 µM) | 8 µg/mL (≈ 38 µM) | 4 µg/mL (≈ 19 µM) | 32 µg/mL (≈ 152 µM) | 16 µg/mL (≈ 75.9 µM) | 16 µg/mL (≈ 75.9 µM) | 64 µg/mL (≈ 304 µM) | 4 µg/mL (≈ 19 µM) | 32 µg/mL (≈ 152 µM) | 40.5% | 30.4% | 45.6% | 40.6% | 78% | 48% | 56.8% | 45.5% | 42.6% | 34.6% | 36.6% | inhibition at 5 µg/mL (CRL-2233SNU-398): 58.9%; inhibition at 5 µg/mL (HTB-131MDA-MB-453): 56.7%; inhibition at 5 µg/mL (SGC7901): 50.6% |
| Cc1ccc2c(c1)C(O)/C(=C\Cl)CS2 (centres unmarked) [Compound 25, (E)-3-(chloromethylene)-6-methylthiochroman-4-ol] | 16 µg/mL (≈ 70.6 µM) | 8 µg/mL (≈ 35.3 µM) | 16 µg/mL (≈ 70.6 µM) |  | 8 µg/mL (≈ 35.3 µM) | 32 µg/mL (≈ 141 µM) | 16 µg/mL (≈ 70.6 µM) | 4 µg/mL (≈ 17.6 µM) | 16 µg/mL (≈ 70.6 µM) |  |  |  |  |  |  |  |  |  |  |  | MIC (Setosphaeria turcica): 16 µg/mL (≈ 70.6 µM) |
| O=C1/C(=C\Cl)CSc2ncccc21 [Compound 27, (E)-3-(chloromethylene)-2H-thiopyrano[2,3-b]pyridin-4(3H)-one] | 8 µg/mL (≈ 37.8 µM) | 2 µg/mL (≈ 9.45 µM) | 8 µg/mL (≈ 37.8 µM) | 4 µg/mL (≈ 18.9 µM) | 16 µg/mL (≈ 75.6 µM) | 16 µg/mL (≈ 75.6 µM) | 8 µg/mL (≈ 37.8 µM) | 4 µg/mL (≈ 18.9 µM) | 4 µg/mL (≈ 18.9 µM) |  |  |  |  |  |  |  |  |  |  |  | MIC [1]: 16 µg/mL (≈ 75.6 µM); MIC (Setosphaeria turcica): 32 µg/mL (≈ 151 µM); MIC (Terchoderma): 4 µg/mL (≈ 18.9 µM) |
| Cc1ccc(S/C=C2\CSc3ccc(F)cc3C2=O)cc1F [Compound 12, (Z)-6-fluoro-3-(((3-fluoro-4-methylphenyl)thio)methylene)thiochroman-4-one] | 8 µg/mL (≈ 23.9 µM) | 64 µg/mL (≈ 191 µM) |  |  |  |  | 64 µg/mL (≈ 191 µM) |  |  | 60.5% | 54.5% | 47.5% | 45.6% | 90.9% | 56.6% | 48.4% | 60.4% | 43.2% | 56.8% | 49% | MIC [1]: 16 µg/mL (≈ 47.8 µM) |
